Laboratory results: patent US20200360537A1, “A GANGLIOGLIOMA-INDUCED ANIMAL MODEL AND A METHOD FOR DIAGNOSING AND TREATING GANGLIOGLIOMA AND RELATED DISEASES” (KOREA ADVANCED INSTITUTE OF SCIENCE AND TECHNOLOGY, priority 2017, published 2020)

Tested on: BRAF V600E mutant mice
Experiment: Seizure reduction by BRAF V600E specific inhibitor in BRAF V600E mutant mice (video-EEG brainwave monitoring)
Assay type: in vivo, mouse

## CCCS(=O)(=O)Nc1ccc(F)c(C(=O)c2c[nH]c3ncc(-c4ccc(Cl)cc4)cc23)c1F [BRAF V600E specific inhibitor, Vemurafenib]
Acute intracerebroventricular injection (3 times/day, 5 uL injection for 8 minutes), FIG. 17 left
  seizure frequency: not reduced
cICV treatment for 6 weeks, FIG. 15 C
  seizures over time (electrophysiologically confirmed): continuously reduced
Chronic intracranioventricular injection (cICV), 500 um PLX4032 via osmotic pump, vs vehicle, FIG. 15 B
  reduction of icta (ictal) seizures: about 4 times
Oral administration (PO, per oral), FIG. 17 right
  seizure frequency: not reduced
